Laboratory results as given in PMC3934494 (Chemistry & biology, 2013).
Where two headings read alike, the source gives them in different places.

Columns and labels:
Microsomal stability [1] = format: in vitro ADME; conditions: rat microsomes
Microsomal stability [2] = format: in vitro ADME; conditions: human microsomes
WT clade B virus = test: PhenoSense HIV antiviral assay; format: cell-based
[3] = system: 12 patient-derived drug resistant viruses; test: PhenoSense HIV antiviral assay; format: cell-based
[4] = molecular target: HIV-1 protease variant M3: I50V/A71V (Human immunodeficiency virus type 1 group M subtype B, UniProt P04585, A559V/I538V); test: FRET-based enzymatic assay, enzyme inhibition constants; format: biochemical; conditions: M3 versus WT protease
WT HIV-1 protease = WT HIV-1 protease (Human immunodeficiency virus type 1 group M subtype B, UniProt P04585); conditions: FDA-approved drugs, ref Nalam, et al., 2010; cited from earlier work

| Structure (SMILES) | Microsomal Stability (Avg. % Fraction Remaining) at 30 Minutes Rat (Microsomal stability [1]; RTV +) [%] | Microsomal Stability (Avg. % Fraction Remaining) at 30 Minutes Rat (Microsomal stability [1]; RTV −) [%] | Microsomal Stability (Avg. % Fraction Remaining) at 60 Minutes Rat (Microsomal stability [1]; RTV +) [%] | Microsomal Stability (Avg. % Fraction Remaining) at 60 Minutes Rat (Microsomal stability [1]; RTV −) [%] | Microsomal CLint Rat (Microsomal stability [1]; RTV +) [μL min^-1 mg^1] | Microsomal T1/2 Rat (Microsomal stability [1]; RTV +) [min] | Microsomal CLint Rat (Microsomal stability [1]; RTV −) [μL min^-1 mg^1] | Microsomal T1/2 Rat (Microsomal stability [1]; RTV −) [min] | Microsomal Stability (Avg. % Fraction Remaining) at 30 Minutes Human (Microsomal stability [2]; RTV +) [%] | Microsomal Stability (Avg. % Fraction Remaining) at 30 Minutes Human (Microsomal stability [2]; RTV −) [%] | Microsomal Stability (Avg. % Fraction Remaining) at 60 Minutes Human (Microsomal stability [2]; RTV +) [%] | Microsomal Stability (Avg. % Fraction Remaining) at 60 Minutes Human (Microsomal stability [2]; RTV −) [%] | Microsomal CLint Human (Microsomal stability [2]; RTV +) [μL min^-1 mg^1] | Microsomal T1/2 Human (Microsomal stability [2]; RTV +) [min] | Microsomal CLint Human (Microsomal stability [2]; RTV −) [μL min^-1 mg^1] | Microsomal T1/2 Human (Microsomal stability [2]; RTV −) [min] | EC50 (WT clade B virus; WT clade B virus) | further results |
| --- | --- | --- | --- | --- | --- | --- | --- | --- | --- | --- | --- | --- | --- | --- | --- | --- | --- | --- |
| CC[C@H](C)CN(C[C@@H](O)[C@H](Cc1ccccc1)NC(=O)O[C@H]1CO[C@H]2OCC[C@H]21)S(=O)(=O)c1ccc(N)cc1 [10a] | 51 | 24 | 35 | 9 | 67 | 31 | 129 | 16 | 81 | 42 | 66 | 19 | 21 | 99 | 81 | 26 |  |  |
| CC[C@H](C)CN(C[C@@H](O)[C@H](Cc1ccccc1)NC(=O)O[C@H]1CO[C@H]2OCC[C@H]21)S(=O)(=O)c1ccc(OC)cc1 [10b] | 0 | 0 | 0 | 0 | 518 | 4 | 885 | 2 | 79 | 0 | 68 | 0 | 19 | 110 | 776 | 3 | more potent | EC50 ([3]; read-out: average EC50, average against 12 different drug resistant strains): 1.33 nM |
| CC[C@H](C)CN(C[C@@H](O)[C@H](Cc1ccccc1)NC(=O)O[C@H]1CO[C@H]2OCC[C@H]21)S(=O)(=O)c1ccc(CO)cc1 [10c] | 45 | 0 | 22 | 0 | 79 | 26 | 664 | 3 | 93 | 0 | 89 | 0 | 8 | >180 | 590 | 4 |  |  |
| CC[C@H](C)CN(C[C@@H](O)[C@H](Cc1ccccc1)NC(=O)O[C@H]1CO[C@H]2OCC[C@H]21)S(=O)(=O)c1ccc2c(c1)OCO2 [10d] | 0 | 0 | 0 | 0 | 771 | 3 | 987 | 2 | 80 | 9 | 60 | 4 | 24 | 85 | 232 | 9 | more potent |  |
| CCC(CC)CN(C[C@@H](O)[C@H](Cc1ccccc1)NC(=O)O[C@H]1CO[C@H]2OCC[C@H]21)S(=O)(=O)c1ccc(OC)cc1 [11b] | 50 | 18 | 20 | 19 | 74 | 28 | 150 | 14 | 75 | 0 | 66 | 0 | 23 | 90 | 844 | 2 | more potent |  |
| CCC(CC)CN(C[C@@H](O)[C@H](Cc1ccccc1)NC(=O)O[C@H]1CO[C@H]2OCC[C@H]21)S(=O)(=O)c1ccc(CO)cc1 [11c] | 79 | 0 | 57 | 0 | 27 | 78 | 907 | 2 | 64 | 0 | 69 | 0 | 26 | 81 | 829 | 3 |  |  |
| CCC(CC)CN(C[C@@H](O)[C@H](Cc1ccccc1)NC(=O)O[C@H]1CO[C@H]2OCC[C@H]21)S(=O)(=O)c1ccc2c(c1)OCO2 [11d] | 21 | 0 | 4 | 0 | 156 | 13 | 712 | 3 | 55 | 0 | 46 | 0 | 46 | 45 | 617 | 3 |  |  |
| CC(C)CN(C[C@@H](O)[C@H](Cc1ccccc1)NC(=O)O[C@H]1CO[C@H]2OCC[C@H]21)S(=O)(=O)c1ccc(N)cc1 [DRV, Darunavir] |  |  |  |  |  |  |  |  |  |  |  |  |  |  |  |  |  | decrease in M3 susceptibility compared to WT protease [4]: 50 fold; EC50 (WT clade B virus): 0.4 nM; EC50 ([3]; Human immunodeficiency virus 1, read-out: average EC50): 5.98 nM; antiviral potency ([3]; MDR strains with the I50V protease mutation): loses significant potency |
| Cc1cccc(C)c1OCC(=O)N[C@@H](Cc1ccccc1)[C@@H](O)C[C@H](Cc1ccccc1)NC(=O)[C@H](C(C)C)N1CCCNC1=O [LPV] |  |  |  |  |  |  |  |  |  |  |  |  |  |  |  |  |  | Ki (WT HIV-1 protease): 0.005 nM |
